Source: patent publication US11492359B2, “Near-infrared nerve-sparing fluorophores” (OREGON HEALTH & SCIENCE UNIVERSITY, priority 2018, dated 2022)

Tests used:
[1] = tested on: murine brachial plexus and sciatic nerves; test: Nerve-specificity screening using direct/topical administration; format: in vivo, mouse; settings: for nerve specificity (N/M contrast vs control group) via direct administration: 125 μM, imaged 30 minutes after staining; for N/M and N/A ratios vs unstained control animals: direct administration
Procedure: All reagents were purchased from Sigma Aldrich, Fisher Scientific, TCI, or Ark Pharm. Unless otherwise indicated, all commercially available starting materials were used directly without further purification. Analytical thin layer chromatography (TLC) was performed on Millipore ready-to-use plates with silica gel 60 (F254, 32-63 μm). Flash chromatography was performed on Sorbent Technologies silica gel for column chromatography or on a Biotage Isolera Flash System using SNAP Ultra cartridges. High-resolution mass spectra (HRMS) were measured on a ThermoElectron LTQ-Orbitrap high resolution mass spectrometer with a dedicated Accela HPLC system, or an Agilent 6244 time-of-flight LCMS with diode array detector VL+. LCMS and Purity Characterization Mass-to-charge ratio and purity of the Oxazine compounds were characterized on an Agilent 6244 time-of-flight tandem liquid chromatography mass spectroscopy (LCMS) with diode array detector VL+. Sample (10 μL) was injected into a C18 column (Poroshell 120, 4.6×50 mm, 2.7 micron), and eluted with a solvent system of A (H2O, 0.1% FA) and B (MeCN, 01.% FA) at 0.4 mL/min, from A/B=90/10 to 5/95 over 10 min, maintained at A/B=5/95 for additional 5 min. Ions were detected in positive ion mode by setting the capillary voltage at 4 kV and gas temperature at 350° C. Purity was calculated through area under the curve analysis of the absorbance at 254 nm. UV-Vis Absorption and Fluorescence Spectroscopy. UV-Vis spectra were collected with a Cary 50 UV-Vis spectrophotometer at room temperature, using a 1-cm quartz cuvette. Fluorescence spectra were collected on a Cary Eclipse fluorescence spectrophotometer (Agilent Technologies). All absorbance spectra were reference corrected. Extinction coefficient was calculated from Beer's Law plots of absorbance versus concentration. Fluorescence spectra were corrected for the wavelength dependent response of the R928 photomultiplier tube using a manufacturer generated correction file. Relative quantum yields are reported as the average of multiple measurements using multiple references, including Oxazine 1, Oxazine 170, and Rhodamine 101. Physicochemical Property Calculation. Physicochemical partition coefficients (Log D) values at pH 7.4, number of hydrogen bond donors and acceptors, polar surface area, and the number of rotatable bonds were calculated using Marvin and JChem calculator plugins (ChemAxon, Budapest, Hungary). Nerve-Specificity Screening using Direct/Topical Administration Each compound was screened for its tissue-specificity using a previously published direct/topical administration strategy in murine brachial plexus and sciatic nerves.^1 Each compound from the Oxazine library was formulated in the previously utilized co-solvent formulation (10% DMSO, 5% Kolliphor, 65% serum and 20% phosphate buffered saline) at 125 μM. 100 μL of the formulated Oxazine were incubated on the exposed brachial plexus or sciatic nerve for 5 minutes. The fluorophore containing solution was removed and the area was irrigated with saline 18 times to remove any unbound fluorophore. Co-registered fluorescence and color images were collected of each stained area 30 minutes after Oxazine direct/topical administration using a custom built macroscopic imaging system with 620/60 nm excitation and 700/75 nm bandpass emission filters. Custom written MatLab code was used to analyze the tissue specific fluorescence where regions of interest were selected on the nerve, muscle and adipose tissue using the white light images. These regions of interest were then analyzed on the co-registered matched fluorescence images permitting assessment of the nerve to muscle and nerve to adipose ratios in blinded manner. […]

swine peripheral nerves = test: Swine nerve imaging on da Vinci Si surgical system; format: in vivo; settings: for nerve contrast against key surgical tissue classes (adipose, muscle, vasculature, peritoneal): laparoscopic; for SBR of buried nerve tissues: underlying peritoneal tissue and several millimeters of mixed adipose and muscle tissues, semi-quantitative
From the text: A custom-built laparoscopic imaging system also capable of real-time color and fluorescence imaging was used to acquire in vivo swine images and videos. The imaging system was integrated into the da Vinci Si surgical system (Intuitive Surgical, Sunnyvale, Calif.) and consisted of a Necsel Neon 5 W 640 nm laser (Necsel, Milpitas, Calif.) coupled to the da Vinci Si endoscope with a 642 nm StopLine single-notch blocking filter (Semrock, Rochester, N.Y.). The single-notch blocking filter was placed in the Si camera sterile adaptor between the rod lens endoscope and the Si camera head. Fluorescent signal acquisition occurred in the Si white light mode with the blocking filter removing the excitation light and the fluorescent signal detected primarily on the red, green, blue (RGB) red-Bayer elements of a modified Si endoscope camera head. Laser power at the endoscope tip measured 800 mW with the optical power loses occurring primarily at the laser fiber/light guide and the Si camera head/rod lens interfaces. Fluorescence and color videos were captured using the Si Vision side cart at an exposure time of 2 ms. Videos were recorded on a Panasonic HD-SDI recorder connected to the TilePro video out connections on the da Vinci Si Vision side cart. Video clips were edited in iMovie to crop their length and include text overlays. Screen captures of the in vivo video clips were collected and are presented as figures. Da Vinci Si imaging display algorithms apply non-linear gamma and color corrections to the collected video, and thus, while image quantification is possible to report what would be visible to surgeons intraoperatively, these values are only semi-quantitative and could vary from what is observed in a more controlled system.
Swine nerve imaging studies of Oxazine derivatives. LGW01-08 and LGW05-75 were administered via IV injection at a body surface area scaled dose from mice for swine nerve imaging studies (0.34 mg/kg) (Nair & Jacob, J Basic Clin Pharm 7, 27-31 (2016) and Sharma & McNeill, Br J Pharmacol 157, 907-921 (2009)). Nerves running along the body wall in the peritoneal cavity buried beneath 1-3 mm of fascia and adipose tissue were imaged using the previously described fluorescence enabled laparoscopic imaging system docked to the da Vinci Si Surgical System. Nerve contrast was monitored immediately following injection and up to 6 hours after systemic administration. Dissection and resection of the identified nerve structures was performed using the da Vinci system, where the resected tissues were fixed in formalin. The fixed tissues were sent to the OHSU Histopathology Shared Resource for paraffin embedding, sectioning and subsequent gold standard H&E staining.
Image analysis of intraoperative nerve contrast. Custom written MatLab code was used to analyze the tissue specific fluorescence where regions of interest (ROIs) were selected on the nerve, muscle and adipose tissue using the white light images, but blinded to the fluorescence images. These ROIs were then analyzed on the co-registered, matched fluorescence images permitting assessment of the mean tissue intensities as well as the nerve to muscle (N/M) and nerve to adipose (N/A) ratios. Fluorescence intensity measurements were divided by the exposure time to obtain normalized intensity per second measurements. Mean nerve to background tissue ratios (N/M and N/A) were calculated for each Oxazine derivative. For nerve imaging at depth image analysis, fluorescent line profiles and 3-D intensity topographical plots were generated in ImageJ using the plot profile and surface plot functions, respectively. The line profiles were background and exposure time corrected by dividing by the exposure time of each image and subtracting the average intensity of background pixels from the entire line profile. […] In addition, non-uniform tissue surfaces, variable endoscope-tissue positioning, and vignetting add further complications to resolving tissue-level SBRs.

[2] = UV-Vis absorption and fluorescence spectroscopy of the Oxazine library; format: physicochemical; settings: for Extinction coefficient: Beer's Law plots; for Quantum yield: relative, references Oxazine 1, Oxazine 170, Rhodamine 101
In short: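 Absorbance measured at room temperature in 1-cm quartz cuvette, reference corrected; extinction coefficient from Beer's Law plots of absorbance vs concentration. Fluorescence spectra corrected for PMT response; relative quantum yields averaged over multiple measurements against Oxazine 1, Oxazine 170 and Rhodamine 101 references.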

[3] = tested on: murine brachial plexus and sciatic nerves; test: Nerve-specificity screening using systemic administration; format: in vivo; settings: for nerve specificity / nerve contrast (N/M vs control group) following systemic administration: IV, 200 nmol, 4 hours prior to imaging; for N/M and N/A ratios vs unstained control animals: systemic administration
[4] = tested on: mouse brachial plexus nerves; test: Nerve imaging at depth under muscle tissue; format: in vivo
Procedure: Nerve imaging at depth studies using a model Oxazine derivative. Oxazine 4 and LGW01-08 were used to stain mouse brachial plexus nerves using both direct and systemic administration methods using the same dose and administration methods previously described. The ability to image the brachial plexus nerve at depth was assessed under varying thicknesses of mouse muscle tissue. Muscle tissue was resected from the peritoneal muscle layer and measured for thickness. One and two layers of resected peritoneal muscle tissue was placed over the stained nerves, providing one and two mm thick homogenous tissue through which the stained nerve tissue was imaged. The same muscle tissue was used to cover the stained nerves from both fluorophores with care taken to orient the muscle in the same way to ensure equivalent comparison. The imaging system configuration was changed to reflect the 700 nm channel in clinically relevant FGS systems (Tummers et al., Eur J Surg Oncol 40, 850-858 (2014); Troyan et al., Ann Surg Oncol 16, 2943-2952 (2009); Ashitate et al., The Journal of surgical research 176, 7-13 (2012); Verbeek et al., The Journal of urology 190, 574-579 (2013); Hillary et al., Langenbecks Arch Surg 403, 111-118 (2018); and Mery et al., Oncotarget 8, 109559-109574 (2017). For fluorescence excitation, the PhotoFluor II was filtered with a 650±22.5 nm bandpass excitation filter. The resulting fluorescence was collected with a 720±30 nm bandpass emission filter for image collection. Camera exposure times ranged from 0.025-4 s for fluorescence image collection.
Image analysis of intraoperative nerve contrast. Custom written MatLab code was used to analyze the tissue specific fluorescence where regions of interest (ROIs) were selected on the nerve, muscle and adipose tissue using the white light images, but blinded to the fluorescence images. These ROIs were then analyzed on the co-registered, matched fluorescence images permitting assessment of the mean tissue intensities as well as the nerve to muscle (N/M) and nerve to adipose (N/A) ratios. Fluorescence intensity measurements were divided by the exposure time to obtain normalized intensity per second measurements. Mean nerve to background tissue ratios (N/M and N/A) were calculated for each Oxazine derivative. For nerve imaging at depth image analysis, fluorescent line profiles and 3-D intensity topographical plots were generated in ImageJ using the plot profile and surface plot functions, respectively. The line profiles were background and exposure time corrected by dividing by the exposure time of each image and subtracting the average intensity of background pixels from the entire line profile. […]

nerve and muscle tissue = test: Ex vivo tissue staining nerve-specificity screening
From the text: Oxazine derivative library nerve-specificity screening. All 64 Oxazine derivatives were screened for nerve specificity using a previously described ex vivo tissue staining assay (Gibbs, S. L., et al., PloS one 8, e73493 (2013)). Ex vivo nerve and muscle tissue fluorescence intensities varied, with many compounds showing minimal nerve or muscle tissue fluorescence above control autofluorescence following Oxazine derivative staining. […] All Oxazine derivatives were further screened for nerve-specificity in vivo using both direct and systemic administration strategies. The direct administration strategy enabled quantification of nerve-specificity and contrast following fluorophore contact with the nerves and surrounding tissues without the requirement of BNB penetration, providing the most similar comparison to ex vivo nerve-specificity screening. The systemic administration screening studies required not only nerve specificity, but also adequate biodistribution and BNB penetration to generate SBR for visualization.

| Structure (SMILES) | nerve specificity (N/M contrast vs control group) via direct administration [1] | N/M and N/A ratios vs unstained control animals [1] | time post-injection at which signal approached background levels (swine peripheral nerves; swine, IV 0.34 mg/kg) | nerve contrast against key surgical tissue classes (adipose, muscle, vasculature, peritoneal) (swine peripheral nerves; swine) | SBR of buried nerve tissues (swine peripheral nerves; swine) | faster time to positive N/A and N/M fluorescence compared to current visible-emissive agents (swine peripheral nerves; systemic administration) | time post-injection to nerve signal / strong nerve contrast (swine peripheral nerves; systemic administration) | Max Abs [2] | Max Em [2] | Max Ex [2] | Extinction coefficient [2] | Quantum yield [2] | nerve specificity / nerve contrast (N/M vs control group) following systemic administration [3] | N/M and N/A ratios vs unstained control animals [3] | width of smallest nerve branches distinguished under muscle tissue ([4]; direct administration, under 1 mm of muscle tissue) | thickness of muscle tissue under which nerve tissue could be identified ([4]; following both systemic and direct administration, 700 nm channel filters) | ex vivo nerve specificity (N/M SBR vs unstained control group) (nerve and muscle tissue) | time after administration with strong nerve SBR (swine peripheral nerves; swine, IV 0.34 mg/kg) | time required for sufficient background tissue clearance (swine peripheral nerves; swine, IV 0.34 mg/kg) |
| --- | --- | --- | --- | --- | --- | --- | --- | --- | --- | --- | --- | --- | --- | --- | --- | --- | --- | --- | --- |
| CCNc1cc2oc3cc(=[N+](CC)CC)ccc-3nc2cc1C [LGW01-08, N-ethyl-N-(7-(ethylamino)-8-methyl-3H-phenoxazin-3-ylidene)ethanaminium] | high nerve specificity | significantly higher N/M and N/A ratios than unstained control animals | ~4 h | positive nerve contrast | ~1.5 | 2-6 fold | 20 min | 638 nm | 659 nm | 640 nm | 78650 M⁻¹ cm⁻¹ | 5.68% | high nerve specificity | significantly higher N/M and N/A ratios than unstained control animals | ~200 μm | up to 2 mm | – | – | – |
| CN(C)c1ccc2nc3ccc(=[N+](C)C)cc-3oc2c1 [LGW01-39, N-(7-(dimethylamino)-3H-phenoxazin-3-ylidene)-N-methylmethanaminium] | – | – | – | – | – | – | – | 648 nm | 667 nm | 650 nm | 76144 M⁻¹ cm⁻¹ | 9.56% | – | – | – | – | significantly higher N/M SBR compared to the unstained control group | – | – |
| CC/N=c1/cc2oc3cc4c(cc3nc-2cc1C)C(C)=CC(C)(C)N4 [LGW01-44, (Z)—N-(2,2,4,8-tetramethyl-1,2-dihydro-9H-pyrido[3,2-b]phenoxazin-9-ylidene)ethanaminium] | positive nerve specificity | – | – | – | – | – | – | 648 nm | 664 nm | 650 nm | 40124 M⁻¹ cm⁻¹ | 21.63% | negative for nerve contrast | – | – | – | significantly higher N/M SBR compared to the unstained control group | – | – |
| CC/N=c1/cc2oc3cc4c(cc3nc-2cc1C)OCCN4CC [LGW05-75, (Z)—N-(4-ethyl-9-methyl-3,4-dihydro-[1,4]oxazino[2,3-b]phenoxazin-8(2H)-ylidene)ethanaminium] | high nerve specificity | significantly higher N/M and N/A ratios than unstained control animals | – | positive nerve contrast | ~1.5 | – | – | 638 nm | 659 nm | 640 nm | 57360 M⁻¹ cm⁻¹ | 31.70% | high nerve specificity | significantly higher N/M and N/A ratios than unstained control animals | – | – | – | > 4.5 h | ~1.5 h |
